From PMC5786788, “Antimicrobial Octapeptin C4 Analogues Active against Cryptococcus Species” (Antimicrobial Agents and Chemotherapy, 2018)
Where two headings read alike, the source gives them in different places. Where a SMILES comes first, the peptide text is derived from it. Bridges are numbered along the chain shown (N, C = ends). [ ]: non-standard residue; d: D form. The star is where a group is joined. Decanoyl(3R-OH) = CCCCCCC[C@@H](O)CC(=O)*; dDab = NCC[C@@H](N)C(=O)O; Dab = NCC[C@H](N)C(=O)O

Columns and labels:
C. gattii MMRL 2651 = system: C. gattii MMRL 2651
Experimental: (§1) A broth microdilution assay was initially used to characterize the antifungal activity of the cyclic lipopeptides ([39], [40]). […] common pathogenic yeasts (C. albicans, C. glabrata, C. parapsilosis, C. neoformans, and C. gattii) and one pathogenic mold (A. fumigatus) were tested to determine the MIC for each compound (Table 1) using broth microdilution. […] The only structural difference between these molecules is the presence of a phenylalanine residue at position 6 in PMB; in PME a D-leucine is present at this location (Fig. 1).
(§2) Fungal strains were stored in 15% glycerol at −80°C until use. The fungal strains used were H99 (C. neoformans type strain) ([55]), cap59Δ (an acapsular H99 mutant) ([56]), ATCC 90113 (C. neoformans), MMRL 2651 (C. gattii), ATCC 90028 (Candida albicans), ATCC 90030 (Candida glabrata), ATCC 22019 (Candida parapsilosis), and ATCC MYA 3626 (Aspergillus fumigatus). Yeasts were cultured in liquid (1% yeast extract, 2% Bacto peptone, 2% glucose) or solid (additional 2% agar) yeast extract-peptone-dextrose (YPD) media at 30°C and maintained at 4°C for no longer than 2 weeks. A. fumigatus was prepared on potato dextrose medium at 30°C and maintained at 4°C for no longer than 2 weeks.
(§3) The MICs of the yeast strains for PMB, PME, and octapeptin C4 and its derivatives were determined in accordance with CLSI M27-A2 guidelines using YNB (Becton Dickinson, USA) medium supplemented with 10 mM ammonium sulfate and 2% glucose, a final inoculum concentration of 1.5 × 10^3 to 2.0 × 10^3 cells/ml, and incubation at 35°C for 72 h ([39]). […] The MICs for PMB, PME, and octapeptin C4 for A. fumigatus were determined in accordance with the CLSI M38-A2 guidelines ([40]) using synthetic RPMI 1640 medium (with glutamine, without bicarbonate and with phenol red; Life Technologies, USA). The final inoculum concentration was 0.4 × 10^4 to 5 × 10^4 cells/ml, with incubation at 35°C for 48 h. […] All assays were completed in triplicate. Fluconazole was used as a positive control where the MIC was determined at both 50% growth (in accordance with CLSI M27-A2 guidelines) and when there was a “no visible growth” reading.

C. neoformans ATCC 90113 = details: for MICs against various Cryptococcus strains: ATCC 90113: ATCC 90113, 72 h
Experimental: as §1, §2, §3

C. neoformans H99 = details: for MICs against various Cryptococcus strains: H99: H99, 72 h; for MIC C. neoformans H99: Table 1, CLSI M27-A2, YNB medium, 35°C, no visible growth after 72 h, triplicate
Experimental: as §1, §2, §3

[1] = system: C. neoformans H99 (cap59Δ); type: cell-based, Cryptococcus neoformans; details: triplicate; for MICs against various Cryptococcus strains: H99 (cap59Δ): Table 2, values consistent across replicates
Text: The different susceptibility of C. neoformans and C. gattii to PMB compared to other pathogenic fungi such as C. albicans and A. fumigatus has been postulated to arise from differences in cell surface composition ([38]). One key difference is the presence of a negatively charged polysaccharide capsule in Cryptococcus spp. proposed to concentrate the cationic lipopeptides at the cell surface ([38]). To examine this potential interaction for the octapeptin series, a C. neoformans cap59Δ mutant strain deficient in the secretion of negatively charged glucuronoxylomannan (an α1–3-linked mannan containing β1,2 and β1,4 xylosyl substitutions, as well as β1,2-linked glucuronyl residues) ([41], [42]), was tested against octapeptin C4 in comparison to PMB.
as §2, §3

C. albicans = assay: Broth microdilution MIC; type: cell-based, Candida albicans; details: ATCC 90028; CLSI M27-A2, YNB medium, 35°C, no visible growth after 48 h; triplicate
Experimental: as §1, §2
(§4) […] The final inoculum concentration was 0.4 × 10^4 to 5 × 10^4 cells/ml, with incubation at 35°C for 48 h. […] All assays were completed in triplicate. […]

C. glabrata = assay: Broth microdilution MIC; type: cell-based, Candida glabrata; details: ATCC 90030; CLSI M27-A2, YNB medium, 35°C, no visible growth after 48 h; triplicate
Experimental: as §1, §2, §4

C. parapsilosis = assay: Broth microdilution MIC; type: cell-based, Candida parapsilosis; details: ATCC 22019; CLSI M27-A2, YNB medium, 35°C, no visible growth after 48 h; triplicate
Experimental: as §1, §2, §4

A. fumigatus = assay: Broth microdilution MIC (CLSI M38-A2); type: cell-based, Aspergillus fumigatus; details: ATCC MYA 3626; CLSI M38-A2, RPMI 1640, 35°C, no visible growth after 48 h; triplicate
Experimental: as §1
Fungal strains were stored in 15% glycerol at −80°C until use. […]
The MICs of the yeast strains for PMB, PME, and octapeptin C4 and its derivatives were determined in accordance with CLSI M27-A2 guidelines using YNB (Becton Dickinson, USA) medium supplemented with 10 mM ammonium sulfate and 2% glucose, a final inoculum concentration of 1.5 × 10^3 to 2.0 × 10^3 cells/ml, and incubation at 35°C for 72 h ([39]). […] The MICs for PMB, PME, and octapeptin C4 for A. fumigatus were determined in accordance with the CLSI M38-A2 guidelines ([40]) using synthetic RPMI 1640 medium (with glutamine, without bicarbonate and with phenol red; Life Technologies, USA). […]

[2] = system: capsule-induced or -suppressed C. neoformans H99 cells; assay: In vitro time course assay of capsule influence; type: cell-based, Cryptococcus neoformans; details: PMB at 12.5 μM
Experimental: (A) C. neoformans grown on capsule inducing RPMI 1640 agar medium (without L-glutamine and sodium bicarbonate) with incubation at 37°C in 5% CO2 for 3 days. Scale bar, 20 μm. (B) C. neoformans grown on capsule-suppressing media, YPD containing 1 M NaCl at 30°C in ambient air for 3 days. […] The data represent the means of two replicates, and the error bars represent the standard errors of the mean (SEM).
Capsule induction of strain H99 was achieved as described by Zhai et al. ([37]) with growth on RPMI 1640 (without L-glutamine and sodium bicarbonate) (Sigma, Australia) agar medium and incubation at 37°C in 5% CO2 and capsule suppression by growth on YPD containing 1 M NaCl at 30°C in ambient air. After 3 days, the cells from each culture were collected, washed twice with phosphate-buffered saline (PBS), and resuspended in PBS to avoid changes in the capsule at a density of 1,500 to 2,000 cells/ml. Cell suspensions were treated with test compounds at the determined MIC value. The compounds tested were PMB sulfate, octapeptin C4, and the octapeptin C4 alanine scan derivatives P1L, P1D, P4, P3, P4L, P4D, P5, P6, P7, and P8. At 0, 1, 2, 4, 6, and 8 h after inoculation, samples from each treatment were spread onto a YPD plate, followed by incubation at 30°C for 3 days, at which time the colonies were counted. The assay was repeated in duplicate, and paired sample t tests were performed using GraphPad Prism v7.0 (GraphPad Software, USA).

[3] = system: melanized and nonmelanized C. neoformans cells; assay: In vitro time course assay of melanization effect; type: cell-based, Cryptococcus neoformans; details: melanin induced on L-DOPA agar vs suppressed on YPD agar; PMB at 12.5 μM, octapeptin C4 at 1.56 μM; 0-8 h; two replicates
Experimental: (A) Melanin suppressed C. neoformans. (B) Melanin induced C. neoformans. […] Samples from each flask were taken 0, 1, 2, 4, 6, and 8 h after inoculation, spread onto a YPD plate, and incubated at 30°C for 3 days, at which time the colonies were counted. The data represent the means of two replicates, and the error bars represent the SEM.
Melanization was induced by growth on L-DOPA agar medium at 30°C and suppressed by growth on YPD agar medium at 30°C. Cells were grown over 3 days and collected, washed twice in PBS, and then resuspended in PBS at a density of 1,500 to 2,000 cells/ml. Aliquots of the cells were treated with PMB sulfate, octapeptin C4, and the octapeptin C4 derivatives P1L, P1D, P4, P3, P4L, P4D, P5, P6, P7, and P8 at the determined MICs. At 0, 1, 2, 4, 6, and 8 h after inoculation, samples of the suspension were spread onto YPD agar and incubated at 30°C for 3 days, and the colonies were counted. The assay was repeated in duplicate, and paired sample t tests were performed in GraphPad Prism v7.0.

common fungal pathogens = assay: Broth microdilution MIC, panel of fungal pathogens; type: cell-based; details: highest concentration 100 μg/ml
Experimental: as §1
The MICs of the yeast strains for PMB, PME, and octapeptin C4 and its derivatives were determined in accordance with CLSI M27-A2 guidelines using YNB (Becton Dickinson, USA) medium supplemented with 10 mM ammonium sulfate and 2% glucose, a final inoculum concentration of 1.5 × 10^3 to 2.0 × 10^3 cells/ml, and incubation at 35°C for 72 h ([39]). […] The MICs for PMB, PME, and octapeptin C4 for A. fumigatus were determined in accordance with the CLSI M38-A2 guidelines ([40]) using synthetic RPMI 1640 medium (with glutamine, without bicarbonate and with phenol red; Life Technologies, USA). The final inoculum concentration was 0.4 × 10^4 to 5 × 10^4 cells/ml, with incubation at 35°C for 48 h. […] All assays were completed in triplicate. […]

Row | Molecule | MICs against various Cryptococcus strains: MMRL 2651 (C. gattii MMRL 2651; 72 h) | MICs against various Cryptococcus strains: ATCC 90113 (C. neoformans ATCC 90113) | MICs against various Cryptococcus strains: H99 (C. neoformans H99) | MICs against various Cryptococcus strains: H99 (cap59Δ) [1] | MIC C. albicans (C. albicans) | MIC C. glabrata (C. glabrata) | MIC C. parapsilosis (C. parapsilosis) | MIC A. fumigatus (A. fumigatus) | MIC C. neoformans H99 (C. neoformans H99) | other results
1 | CCCCCCC[C@@H](O)CC(=O)N[C@H](CCN)C(=O)N[C@H]1CCNC(=O)[C@H](CC(C)C)NC(=O)[C@H](CCN)NC(=O)[C@H](C)NC(=O)[C@H](CC(C)C)NC(=O)[C@@H](Cc2ccccc2)NC(=O)[C@H](CCN)NC1=O [Compound P6] ({Decanoyl(3R-OH)}-[dDab][Dab][Dab][dF]LA[Dab]L; lactam 2-C) | 6.25 µg/mL | 6.25 µg/mL | 6.25 µg/mL | 12.5 µg/mL |  |  |  |  |  | 
2 | CCCCCCC[C@@H](O)CC(=O)N[C@H](CCN)C(=O)N[C@H]1CCNC(=O)[C@H](CC(C)C)NC(=O)[C@H](C)NC(=O)[C@H](CCN)NC(=O)[C@H](CC(C)C)NC(=O)[C@@H](Cc2ccccc2)NC(=O)[C@H](CCN)NC1=O [Compound P7] ({Decanoyl(3R-OH)}-[dDab][Dab][Dab][dF]L[Dab]AL; lactam 2-C) |  | 6.25 µg/mL | 6.25 µg/mL | 12.5 µg/mL |  |  |  |  |  | MICs against various Cryptococcus strains: MMRL 2651 (C. gattii MMRL 2651; Table 2, C. gattii, triplicate, values consistent across replicates): 12.5 µg/mL
3 | CCCCCCC[C@@H](O)CC(=O)N[C@H](CCN)C(=O)N[C@H]1CCNC(=O)[C@H](C)NC(=O)[C@H](CCN)NC(=O)[C@H](CCN)NC(=O)[C@H](CC(C)C)NC(=O)[C@@H](Cc2ccccc2)NC(=O)[C@H](CCN)NC1=O [Compound P8] ({Decanoyl(3R-OH)}-[dDab][Dab][Dab][dF]L[Dab][Dab]A; lactam 2-C) | 50.0 µg/mL | 6.25 µg/mL | 50.0 µg/mL | 100 µg/mL |  |  |  |  |  | 
4 | polymyxin B [PMB] |  |  |  |  | >100 µg/mL | >100 µg/mL | >100 µg/mL | >100 µg/mL | 12.5 µg/mL | MIC C. gattii (C. gattii MMRL 2651; Table 1, MMRL 2651, CLSI M27-A2, YNB medium, 35°C, 72 h, triplicate): 25.0 µg/mL; MIC C. neoformans ATCC 90113 (C. neoformans ATCC 90113; Table 1, CLSI M27-A2, YNB medium, 35°C, no visible growth after 72 h, triplicate): 12.5 µg/mL; MIC C. neoformans H99 (cap59Δ) ([1]; Table 1, CLSI M27-A2, YNB medium, 35°C, no visible growth after 72 h): 50 µg/mL; time to 50% reduction in viability, fungal cells with large capsule ([2]; H99, capsule induced on RPMI 1640 agar 37°C 5% CO2, cells in PBS, colony counts, two replicates): around 1 h; time to 50% reduction in viability, capsule suppressed fungal cells ([2]; H99, capsule suppressed on YPD with 1 M NaCl 30°C, relative to large capsule cells): five times longer; effect of capsule formation on fungicidal activity ([2]; H99, octapeptin C4 at 1.56 μM, 0-8 h, two replicates): enhanced the fungicidal effect; effect of melanization on fungicidal activity [3]: no difference in activity
5 | polymyxin E [PME] |  |  |  |  | >100 µg/mL | >100 µg/mL | >100 µg/mL | >100 µg/mL | 100 µg/mL | antifungal activity against any of the species analyzed (common fungal pathogens): did not show significant antifungal activity
